Source: US9919998B2, “Antibacterial agents: Nα-aroyl-N-aryl-phenylalaninamides” (priority 2014, dated 2018)
Converted amounts (≈) assume the structure as drawn.

Key:
Type in all cases: cell-based
[1] = system: Vero E6 ATCC CRL1586 cells; assay: Mammalian-cell cytotoxicity, minimal cytotoxic concentration (CellTiter96)
Procedure: Minimal cytotoxic concentrations (MCCs) against mammalian cells in culture were determined using Vero E6 ATCC CRL1586 cells and the CellTiter96 assay kit (Promega, Inc.). […]

[2] = system: Mycobacterium smegmatis ATCC 19420; assay: Broth microdilution MIC, M. smegmatis; conditions: Mycolicibacterium smegmatis, ATCC19420, M. smegmatis ATCC 19420; read-out: MIC Mycobacterium smegmatis ATCC 19420
Source text: MICs in Mycobacterium smegmatis ATCC 19420 and Mycobacterium smegmatis ATCC 19420 derivatives were quantified using broth microdilution assays as described [Clinical and Laboratory Standards Institute (CLSI/NCCLS) (2009) Methods for Dilution Antimicrobial Susceptibility Tests for Bacteria That Grow Aerobically; Approved Standard, Eighth Edition. CLIS Document M07-A8 (CLIS, Wayne Pa.)].

[3] = system: Mycobacterium tuberculosis H37Rv; assay: Microplate Alamar Blue assay (MABA) MIC, M. tuberculosis; conditions: read-out: MIC Mycobacterium tuberculosis H37Rv
Source text: (§1) Minimal inhibitory concentrations (MICs) in Mycobacterium tuberculosis H37Rv and Mycobacterium avium ATCC 25291 were quantified using microplate Alamar Blue assays as described (MABA; [Collins, L. & Franzblau, S. (1997) Microplate Alamar Blue assay versus BACTEC 460 system for high-throughput screening of compounds against Mycobacterium tuberculosis and Mycobacterium avium. Antimicrob. Agents Chemother. 41, 1004-1009]).

[4] = system: Mycobacterium avium ATCC 25291; assay: Microplate Alamar Blue assay (MABA) MIC, M. avium; conditions: ATCC25291, M. avium ATCC 25291
Source text: as §1

Compound	MCC mammalian cells Vero E6 ATCC CRL1586 [1]	MIC [2]	MIC [3]	MIC [4]
O=C(NC(Cc1ccc(O)cc1)C(=O)Nc1cccc2cnccc12)c1cccs1 (stereo not drawn) [IX-33, N-(3-(4-hydroxyphenyl)-1-(isoquinolin-5-ylamino)-1-oxopropan-2-yl)thiophene-2-carboxamide]	80 µg/mL	0.195 µg/mL (≈ 0.467 µM)	12.5 µg/mL (≈ 29.9 µM)	6.25 µg/mL (≈ 15 µM)
O=C(NC(Cc1ccc(O)cc1)C(=O)Nc1cccc2c1OCCO2)c1cccs1 (stereo not drawn) [IX-34, N-(1-((2,3-dihydrobenzo[b][1,4]dioxin-5-yl)amino)-3-(4-hydroxyphenyl)-1-oxopropan-2-yl)thiophene-2-carboxamide]	85 µg/mL	0.39 µg/mL (≈ 0.919 µM)	6.25 µg/mL (≈ 14.7 µM)	3.12 µg/mL (≈ 7.36 µM)
COc1ncccc1NC(=O)C(Cc1ccccc1)NC(=O)c1ccccc1 (stereo not drawn) [IX-38, N-(1-((2-methoxypyridin-3-yl)amino)-1-oxo-3-phenylpropan-2-yl)benzamide]	38 µg/mL	0.39 µg/mL (≈ 1.04 µM)	6.25 µg/mL (≈ 16.6 µM)	6.25 µg/mL (≈ 16.6 µM)
O=C(NC(Cc1ccccc1)C(=O)Nc1cccc2cn[nH]c12)c1ccccc1 (stereo not drawn) [IX-39, N-(1-((1H-indazol-7-yl)amino)-1-oxo-3-phenylpropan-2-yl)benzamide]	20 µg/mL	1.56 µg/mL (≈ 4.06 µM)	> 50 µg/mL	> 50 µg/mL
O=C(NC(Cc1ccc(O)cc1)C(=O)Nc1cccc2cc[nH]c12)c1ccccc1 (stereo not drawn) [IX-40, N-(1-((1H-indol-7-yl)amino)-3-(4-hydroxyphenyl)-1-oxopropan-2-yl)benzamide]	78 µg/mL	0.39 µg/mL (≈ 0.976 µM)	12.5 µg/mL (≈ 31.3 µM)	12.5 µg/mL (≈ 31.3 µM)
O=C(NC(Cc1ccccc1)C(=O)Nc1cccc2cc[nH]c12)c1cccs1 (stereo not drawn) [IX-41, N-(1-((1H-indol-7-yl)amino)-1-oxo-3-phenylpropan-2-yl)thiophene-2-carboxamide]	48 µg/mL	0.39 µg/mL (≈ 1 µM)	12.5 µg/mL (≈ 32.1 µM)	12.5 µg/mL (≈ 32.1 µM)
COc1ccccc1NC(=O)C(Cc1ccccc1)NC(=O)c1cccc2[nH]ccc12 (stereo not drawn) [IX-43, N-(1-((2-methoxyphenyl)amino)-1-oxo-3-phenylpropan-2-yl)-1H-indole-4-carboxamide]	59 µg/mL	0.39 µg/mL (≈ 0.943 µM)	6.25 µg/mL (≈ 15.1 µM)	12.5 µg/mL (≈ 30.2 µM)
O=C(NC(Cc1ccccc1)C(=O)Nc1cccc2cnccc12)c1cccc2[nH]ccc12 (stereo not drawn) [IX-44, N-(1-(isoquinolin-5-ylamino)-1-oxo-3-phenylpropan-2-yl)-1H-indole-4-carboxamide]	70 µg/mL	0.195 µg/mL (≈ 0.449 µM)	1.56 µg/mL (≈ 3.59 µM)	3.12 µg/mL (≈ 7.19 µM)
O=C(NC(Cc1ccccc1)C(=O)Nc1cccc2c1OCCO2)c1cccc2[nH]ccc12 (stereo not drawn) [IX-45, N-(1-((2,3-dihydrobenzo[b][1,4]dioxin-5-yl)amino)-1-oxo-3-phenyl-propan-2-yl)-1H-indole-4-carboxamide]	71 µg/mL	0.39 µg/mL (≈ 0.883 µM)	3.12 µg/mL (≈ 7.08 µM)	6.25 µg/mL (≈ 14.2 µM)
Cc1ccc(Cl)cc1NC(=O)C(Cc1ccc(O)cc1)NC(=O)c1ccccc1 (stereo not drawn) [IX-51, N-(1-((5-chloro-2-methylphenyl)amino)-3-(4-hydroxyphenyl)-1-oxopropan-2-yl)benzamide]	60 µg/mL	0.78 µg/mL (≈ 1.91 µM)	3.12 µg/mL (≈ 7.64 µM)	6.25 µg/mL (≈ 15.3 µM)
Cc1ccc(Cl)cc1NC(=O)C(Cc1ccccc1)NC(=O)c1cccc2[nH]ccc12 (stereo not drawn) [IX-53, N-(1-((5-chloro-2-methylphenyl)amino)-1-oxo-3-phenylpropan-2-yl)-1H-indole-4-carboxamide]	34 µg/mL	0.39 µg/mL (≈ 0.903 µM)	3.12 µg/mL (≈ 7.24 µM)	3.12 µg/mL (≈ 7.24 µM)
Cc1ccccc1NC(=O)C(Cc1ccc(O)cc1)NC(=O)c1ccccc1F (stereo not drawn) [IX-54, 2-fluoro-N-(3-(4-hydroxyphenyl)-1-oxo-1-(o-tolylamino)propan-2-yl)benzamide]	>100 µg/mL	1.56 µg/mL (≈ 3.98 µM)	25 µg/mL (≈ 63.7 µM)	50 µg/mL (≈ 127 µM)
COc1ccccc1NC(=O)C(Cc1ccccc1)NC(=O)c1ccccc1F (stereo not drawn) [IX-56, 2-fluoro-N-(1-((2-methoxyphenyl)amino)-1-oxo-3-phenylpropan-2-yl)benzamide]	97 µg/mL	0.39 µg/mL (≈ 0.994 µM)	3.12 µg/mL (≈ 7.96 µM)	6.25 µg/mL (≈ 15.9 µM)
O=C(NC(Cc1ccccc1)C(=O)Nc1cccc2cnccc12)c1ccccc1F (stereo not drawn) [IX-57, 2-fluoro-N-(1-(isoquinolin-5-ylamino)-1-oxo-3-phenylpropan-2-yl)benzamide]	79 µg/mL	0.39 µg/mL (≈ 0.943 µM)	6.25 µg/mL (≈ 15.1 µM)	12.5 µg/mL (≈ 30.2 µM)
O=C(NC(Cc1ccccc1)C(=O)Nc1cccc2c1OCCO2)c1ccccc1F (stereo not drawn) [IX-59, N-(1-((2,3-dihydrobenzo[b][1,4]dioxin-5-yl)amino)-1-oxo-3-phenylpropan-2-yl)-2-fluorobenzamide]	49 µg/mL	0.095 µg/mL (≈ 0.226 µM)	3.12 µg/mL (≈ 7.43 µM)	6.25 µg/mL (≈ 14.9 µM)
Cc1ccccc1NC(=O)C(Cc1ccc(O)cc1)NC(=O)c1ccccc1Cl (stereo not drawn) [IX-60, 2-chloro-N-(3-(4-hydroxyphenyl)-1-oxo-1-(o-tolylamino)propan-2-yl)benzamide]	>100 µg/mL	3.12 µg/mL (≈ 7.64 µM)	50 µg/mL (≈ 122 µM)	> 50 µg/mL
Cc1ccc(Cl)cc1NC(=O)C(Cc1ccccc1)NC(=O)c1ccccc1Cl (stereo not drawn) [IX-61, 2-chloro-N-(1-((5-chloro-2-methylphenyl)amino)-1-oxo-3-phenylpropan-2-yl)benzamide]	9.2 µg/mL	0.39 µg/mL (≈ 0.913 µM)	> 50 µg/mL	> 50 µg/mL
COc1ccccc1NC(=O)C(Cc1ccccc1)NC(=O)c1ccccc1Cl (stereo not drawn) [IX-62, 2-chloro-N-(1-((2-methoxyphenyl)amino)-1-oxo-3-phenylpropan-2-yl)benzamide]	12 µg/mL	0.39 µg/mL (≈ 0.954 µM)	6.25 µg/mL (≈ 15.3 µM)	6.25 µg/mL (≈ 15.3 µM)
O=C(NC(Cc1ccccc1)C(=O)Nc1cccc2cnccc12)c1ccccc1Cl (stereo not drawn) [IX-63, 2-chloro-N-(1-(isoquinolin-5-ylamino)-1-oxo-3-phenylpropan-2-yl)benzamide]	>100 µg/mL	0.78 µg/mL (≈ 1.81 µM)	6.25 µg/mL (≈ 14.5 µM)	12.5 µg/mL (≈ 29.1 µM)
O=C(NC(Cc1ccccc1)C(=O)Nc1cccc2ncccc12)c1ccccc1Cl (stereo not drawn) [IX-64, 2-chloro-N-(1-oxo-3-phenyl-1-(quinolin-5-ylamino)propan-2-yl)benzamide]	78 µg/mL	0.78 µg/mL (≈ 1.81 µM)	12.5 µg/mL (≈ 29.1 µM)	50 µg/mL (≈ 116 µM)
O=C(NC(Cc1ccccc1)C(=O)Nc1cccc2c1OCCO2)c1ccccc1Cl (stereo not drawn) [IX-65, 2-chloro-N-(1-((2,3-dihydrobenzo[b][1,4]dioxin-5-yl)amino)-1-oxo-3-phenylpropan-2-yl)benzamide]	18 µg/mL	0.78 µg/mL (≈ 1.79 µM)	3.12 µg/mL (≈ 7.15 µM)	6.25 µg/mL (≈ 14.3 µM)
Cc1ccc(Cl)cc1NC(=O)C(Cc1ccccc1)NC(=O)c1ccccc1C (stereo not drawn) [IX-67, N-(1-((5-chloro-2-methylphenyl)amino)-1-oxo-3-phenylpropan-2-yl)-2-methylbenzamide]	8 µg/mL	0.19 µg/mL (≈ 0.467 µM)	1.56 µg/mL (≈ 3.83 µM)	1.56 µg/mL (≈ 3.83 µM)
COc1ccccc1NC(=O)C(Cc1ccccc1)NC(=O)c1ccccc1C (stereo not drawn) [IX-68, N-(1-((2-methoxyphenyl)amino)-1-oxo-3-phenylpropan-2-yl)-2-methylbenzamide]	17 µg/mL	0.39 µg/mL (≈ 1 µM)	3.12 µg/mL (≈ 8.04 µM)	6.25 µg/mL (≈ 16.1 µM)
Cc1ccccc1C(=O)NC(Cc1ccccc1)C(=O)Nc1cccc2cnccc12 (stereo not drawn) [IX-69, N-(1-(isoquinolin-5-ylamino)-1-oxo-3-phenylpropan-2-yl)-2-methylbenzamide]	>100 µg/mL	0.39 µg/mL (≈ 0.952 µM)	3.12 µg/mL (≈ 7.63 µM)	3.12 µg/mL (≈ 7.63 µM)
